The values below come from patent US11779585B2 (priority 2020, dated 2023).

“And” between values parts separate entries of the source, which are not always exact repeats. Equal entries are not always repeated. Where two headings read alike, the source gives them in different places.

The test system of data set [1] is MERS-CoV. Conditions: Dyall et al.; cited from earlier work.
Data set [2] deals with SARS-CoV. Conditions: Dyall et al.; cited from earlier work.
Data set [3] concerns SARS-CoV2. Briefly: microbe, parasite or virus in culture. The class given is cell-based, SARS-CoV-2.
For data set [4], the system named is Vero E6 cells. Conditions: hydrochloride.
Data set [5] deals with 2019-nCoV. The note with it: Wang et al., not in Table 7; cited from earlier work.
Setting [6] is: Severe acute respiratory syndrome coronavirus 2, Vero C1008.

For `CN(C)CCCN1c2ccccc2Sc2ccc(Cl)cc21.Cl` [Chlorpromazine HCl, chlorpromazine HCl, reference compound], the concentration for half-maximal inhibition (IC50) (in general, the midpoint of a concentration-inhibition curve) in data set [1] was 9.5 µM; in data set [2], 13 µM; in data set [3] (setting [6]), 7.2 µM. Also, the Inhibition (as a rule, the drop in the measured response relative to a control, in per cent) turned out to be 100.2% in data set [3] (30 µM, HCl) and 100.2% in data set [3] (60 µM, HCl). In addition, the inhibition (in general, the share of the control response that was lost under treatment) at 30 µM in data set [3] (setting [6]) stood at 100%.

With `Cl.NC(=O)c1cn([C@@H]2O[C@H](CO)[C@@H](O)[C@H]2O)c2ncnc(N)c12` [Oya2, 4-amino-7-((2R,3R,4S,5R)-3,4-dihydroxy-5-(hydroxymethyl)tetrahydrofuran-2-yl)-7H-pyrrolo[2,3-d]pyrimidine-5-carboxamide hydrochloride], the Cytotoxicity in data set [4] (0.0047 μM, MOI 0.6, Plate 1) is −2.54% and −1.465% and −2.751%; in data set [4] (0.0047 μM, MOI 0.6, Plate 2), −2.54% and −1.465% and −2.751%; in data set [4] (0.0094 μM, MOI 0.6, Plate 1) it was 0.4496% and −3.731% and −1.047%; in data set [4] (0.0094 μM, MOI 0.6, Plate 2), 0.4496% and −3.731% and −1.047%; in data set [4] (0.0188 μM, MOI 0.6, Plate 1) it was −1.946% and −1.045% and −1.4651%; in data set [4] (0.0188 μM, MOI 0.6, Plate 2), −1.946% and −1.045% and −1.4651%. Moreover, the Cytotoxicity is 16.08% and 19.63% and 18.13% in data set [4] (0.075 μM, MOI 0.6, Plate 1); 16.08% and 19.63% and 18.13% in data set [4] (0.075 μM, MOI 0.6, Plate 2); 35.37% and 35.25% and 31.56% in data set [4] (0.15 μM, MOI 0.6, Plate 1); 35.37% and 35.25% and 31.56% in data set [4] (0.15 μM, MOI 0.6, Plate 2); 55.54% and 56.53% and 57.44% in data set [4] (0.3 μM, MOI 0.6, Plate 1); 55.54% and 56.53% and 57.44% in data set [4] (0.3 μM, MOI 0.6, Plate 2). In addition, the Cytotoxicity in data set [4] (0.6 μM, MOI 0.6, Plate 1) was 69.74% and 68.71% and 69.51%; in data set [4] (0.6 μM, MOI 0.6, Plate 2), 69.74% and 68.71% and 69.51%. The Inhibition is 6.759% and 2.316% in data set [3] (0.0047 μM, MOI 0.6, Plate 2, hydrochloride); −4.548% and −2.306% and −5.003% in data set [3] (0.0047 μM, title MOI 0.6 (text MOI 1.3), Plate 1, hydrochloride); −12.4801% and −9.091% in data set [3] (0.0047 μM, title MOI 0.6 (text MOI 1.3), Plate 2, hydrochloride); 22.21% in data set [3] (0.0094 μM, MOI 0.6, Plate 2, hydrochloride); −4.5066% and −0.5728% and 3.754% in data set [3] (0.0094 μM, title MOI 0.6 (text MOI 1.3), Plate 2, hydrochloride); 9.743% and 4.635% in data set [3] (0.0188 μM, MOI 0.6, Plate 2, hydrochloride). Moreover, the Inhibition in data set [3] (0.0188 μM, title MOI 0.6 (text MOI 1.3), Plate 1, hydrochloride) was 1.888% and −0.5178% and 4.439%; in data set [3] (0.0375 μM, MOI 0.6, Plate 1, hydrochloride), 12.21% and 2.813% and 5.217%; in data set [3] (0.0375 μM, MOI 0.6, Plate 2, hydrochloride), −1.2509% and −10.9963%; in data set [3] (0.0375 μM, title MOI 0.6 (text MOI 1.3), Plate 2, hydrochloride), 9.292% and 6.13%; in data set [3] (0.075 μM, MOI 0.6, Plate 1, hydrochloride) it was 48.8% and 30.54%; in data set [3] (0.075 μM, MOI 0.6, Plate 2, hydrochloride), 77.73%. For the same compound, the Inhibition is 94.81% and 98.18% in data set [3] (0.15 μM, MOI 0.6, Plate 1, hydrochloride); 99.76% in data set [3] (0.15 μM, MOI 0.6, Plate 2, hydrochloride); 100.5487% and 99.6% in data set [3] (0.15 μM, title MOI 0.6 (text MOI 1.3), Plate 1, hydrochloride); 95.57% and 98.32% in data set [3] (0.15 μM, title MOI 0.6 (text MOI 1.3), Plate 2, hydrochloride); 99.8055% in data set [3] (0.3 μM, MOI 0.6, Plate 1, hydrochloride); 99.76% in data set [3] (0.3 μM, MOI 0.6, Plate 2, hydrochloride). The Inhibition in data set [3] (0.3 μM, title MOI 0.6 (text MOI 1.3), Plate 1, hydrochloride) worked out at 99.49%; in data set [3] (0.3 μM, title MOI 0.6 (text MOI 1.3), Plate 2, hydrochloride) it was 97.81%; in data set [3] (0.6 μM, MOI 0.6, Plate 1, hydrochloride), 99.76%; in data set [3] (0.6 μM, MOI 0.6, Plate 2, hydrochloride) it was 100.0302%.

For the compound `CCN(CC)CCCC(C)Nc1ccnc2cc(Cl)ccc12` (stereo not shown) [chloroquine], in data set [5], the IC50 is 1.13 µM.
